Measurements from PubChem BioAssay AID256 (DTP/NCI, 2004).
Where “and” joins values, the source holds several entries; their conditions need not be identical. Equal values may be shown once. Toxic doses and inconclusive results are not listed. Rule for the calls: active = survival T/C of 150% or more; inactive = T/C below 125% in these data.

Tested on: CD2F1 mice, L1210 leukemia ip, survival T/C
Test: NCI In Vivo Anticancer Drug Screen. Data for tumor model L1210 Leukemia (intraperitoneal) in CD2F1 (CDF1) mice
Conditions: endpoint: mean survival time, higher = longer survival
In short: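 Transplantable tumor in mice; compound-treated vs vehicle-treated groups. Read-out = treated/control ratio of the measured endpoint.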

[1] = dose: 100.0 mg/kg/injection, schedule: Q04DX003 (ip), vehicle: saline with Tween-80
[2] = dose: 200.0 mg/kg/injection, schedule: Q04DX003 (ip), vehicle: saline with Tween-80
[3] = dose: 400.0 mg/kg/injection, schedule: Q04DX003 (ip), vehicle: saline with Tween-80
[4] = dose: 100.0 mg/kg/injection, schedule: Q01DX009 (ip), vehicle: saline with Tween-80
[5] = dose: 200.0 mg/kg/injection, schedule: Q01DX009 (ip), vehicle: saline with Tween-80
[6] = dose: 400.0 mg/kg/injection, schedule: Q01DX009 (ip), vehicle: saline with Tween-80

Measured: T/C

CCOC(=O)c1c[nH]c2cc(OC)ccc2c1=O
inactive: [1] 91 % of control | [2] 102 % of control | [3] 100 % of control

CC[C@@H](O)C[C@H]1CCC[C@@]2(C[C@@H]3OC(=O)/C=C/[C@@](C)(O)[C@@H](O)[C@H](C)[C@@H](O)[C@H](OC4CCC(N(C)C)C(C)O4)[C@@H](O)[C@](C)(O)CCCCC/C=C/[C@@H]4CC(C)(C)O[C@@]4(O)C[C@H](O2)[C@H]3C)O1 (some centres undefined)
inactive: dose: 0.25 mg/kg/injection, schedule: Q01DX009 (ip), vehicle: saline 109 % of control

O=c1c2ccccc2c2nccc3c4ccccc4n1c32
inactive: [4] 103 % of control | [1] 102 % of control | [5] 105 % of control | [2] 107 % of control | [6] 100 % of control | [3] 107 % of control

O=[N+]([O-])c1ccc(N/N=C(\COc2ccccc2)c2ccccc2)c([N+](=O)[O-])c1
inactive: dose: 37.5 mg/kg/injection, schedule: Q01DX001 (ip), vehicle: saline with Tween-80 98 % of control | dose: 75.0 mg/kg/injection, schedule: Q01DX001 (ip), vehicle: saline with Tween-80 97 % of control | dose: 150.0 mg/kg/injection, schedule: Q01DX001 (ip), vehicle: saline with Tween-80 97 % of control

O=C1C(c2ccccc2)=C(c2ccccc2)C(c2ccccc2)=C1c1ccccc1
inactive: dose: 50.0 mg/kg/injection, schedule: Q01DX009 (ip), vehicle: saline with Tween-80 95 % of control | dose: 100.0 mg/kg/injection, schedule: Q01DX001 (ip), vehicle: saline with Tween-80 97 % of control | [4] 91 % of control | dose: 200.0 mg/kg/injection, schedule: Q01DX001 (ip), vehicle: saline with Tween-80 87 % of control | [5] 88 % of control | dose: 400.0 mg/kg/injection, schedule: Q01DX001 (ip), vehicle: saline with Tween-80 91 % of control

CSc1ccccc1C(C)(C)C(=O)O
inactive: [1] 105 % of control | [2] 105 % of control | [3] 96 % of control

OC1CCC2CCCCC2C1 (centres undefined)
inactive: dose: 25.0 mg/kg/injection, schedule: Q04DX003 (ip), vehicle: saline 107 % of control | dose: 50.0 mg/kg/injection, schedule: Q04DX003 (ip), vehicle: saline 94 % of control | [1] 102 % of control | dose: 100.0 mg/kg/injection, schedule: Q04DX003 (ip), vehicle: saline 98 % of control | [2] 107 % of control | [3] 101 % of control

Cc1ccccc1C1(c2ccccc2C)OC(=O)c2ccccc21
inactive: dose: 100.0 mg/kg/injection, schedule: Q04DX003 (ip), vehicle: acetone 104 % of control | dose: 200.0 mg/kg/injection, schedule: Q04DX003 (ip), vehicle: acetone 88 % of control | dose: 400.0 mg/kg/injection, schedule: Q04DX003 (ip), vehicle: acetone 96 % of control

O=C(CBr)c1cc2ncccc2c2ccccc12
inactive: dose: 100.0 mg/kg/injection, schedule: Q01DX009 (ip), vehicle: other 101 % of control

COc1ccc2c(c1)C1(C)C/C(=C\c3ccoc3)C(=O)C(C)C1CC2 (centres undefined)
inactive: dose: 100.0 mg/kg/injection, schedule: Q01DX001 (ip), vehicle: saline 94 % of control | dose: 200.0 mg/kg/injection, schedule: Q01DX001 (ip), vehicle: saline 94 % of control | dose: 400.0 mg/kg/injection, schedule: Q01DX001 (ip), vehicle: saline 102 % of control

CC[C@@]1(O)C[C@H](OC2CC(N(C)C)C(OC3CC(O)C(OC4CCC(=O)C(C)O4)C(C)O3)C(C)O2)c2c(cc3c(c2O)C(=O)c2c(O)ccc(O)c2C3=O)[C@H]1C(=O)OC (some centres undefined)
inactive: dose: 0.25 mg/kg/injection, schedule: Q01DX009 (ip), vehicle: water 101 % of control and 109 % of control | dose: 0.5 mg/kg/injection, schedule: Q01DX009 (ip), vehicle: water 113 % of control and 117 % of control and 119 % of control | dose: 1.0 mg/kg/injection, schedule: Q01DX009 (ip), vehicle: water 122 % of control | dose: 4.0 mg/kg/injection, schedule: Q01DX009 (ip), vehicle: water 89 % of control

O=C(O)C1C2CCC(C2)C1C(=O)O (centres undefined)
inactive: dose: 25.0 mg/kg/injection, schedule: Q04DX002 (ip), vehicle: saline with Tween-80 118 % of control | dose: 50.0 mg/kg/injection, schedule: Q04DX002 (ip), vehicle: saline with Tween-80 100 % of control | dose: 100.0 mg/kg/injection, schedule: Q01DX001 (ip), vehicle: Klucel (hydroxypropylcellulose) (HPC) 108 % of control | dose: 100.0 mg/kg/injection, schedule: Q04DX002 (ip), vehicle: saline with Tween-80 89 % of control | [1] 105 % of control | dose: 200.0 mg/kg/injection, schedule: Q01DX001 (ip), vehicle: Klucel (hydroxypropylcellulose) (HPC) 98 % of control | dose: 200.0 mg/kg/injection, schedule: Q04DX002 (ip), vehicle: saline with Tween-80 93 % of control | [2] 102 % of control | dose: 400.0 mg/kg/injection, schedule: Q01DX001 (ip), vehicle: Klucel (hydroxypropylcellulose) (HPC) 96 % of control

COC(=O)CCC(=O)N(C)CCc1c[nH]c2ccccc12
inactive: [4] 100 % of control | [1] 93 % of control | [5] 94 % of control | [2] 93 % of control | [6] 100 % of control | [3] 98 % of control
